The record followed here is patent publication US9186421B2, “Establishment of rhesus monkey model of autoimmunity type 1 diabetes” (West China Hospital, Sichuan University, priority 2010, dated 2015).

One test relates to rhesus monkeys. Nature of the test: Diabetes model prepared by low dose STZ induction. The class given is in vivo, rhesus monkey. How it is done: Low dose of STZ was administered intravenously for 5 consecutive days, at a dose of 15-30 mg/kg per time; and administrated again on the 7th day and 14th day after last administration. Fasting glucose was observed once each week.
6 rhesus monkeys were used to prepare models according to the method of the present invention and 4 models were successfully prepared. […]

Test [1] has as its system rhesus monkey model of autoimmune type 1 diabetes. Briefly: Insulin treatment of the rhesus monkey model of autoimmune type 1 diabetes. The class given is in vivo. How it is done:
At present, insulin injection is the main treatment method of autoimmune type 1 diabetes. Insulin was applied to the rhesus monkey model of autoimmune type 1 diabetes in this experiment. The specific way was as follows:
1. According to the habit of eating twice per day of rhesus monkeys, different types of insulin were injected twice a day (9:30 am & 17:30 pm) in different doses, applied to the autoimmune type 1 diabetes model prepared by Example 1 of the present invention: combined treatment of (1) long-acting insulin: porcine insulin (protamine zinc insulin) produced by Wanbang Company (Xuzhou, China) and (2) short-acting insulin: ordinary porcine insulin produced by Wanbang Company (Xuzhou, China).
2. Initially, low dose of insulin (0.4 U/kg) was injected subcutaneously so as to avoid the occurrence of low blood glucose.
3. The fasting and postprandial glucose levels were monitored. The administration dosage was adjusted according to the blood glucose level, finally allowing the fasting and postprandial blood glucose to be less than 10 mmol/L and glycosylated hemoglobin to be less than 6.5%.

The mark [2] stands for this setting: established model after low dose STZ i.v.
The mark [3] stands for this setting: insulin s.c. twice a day, start 0.4 U/kg, dosage adjusted to blood glucose.

On to `CN(N=O)C(=O)N[C@@H](C=O)[C@@H](O)[C@H](O)[C@H](O)CO` [STZ, Streptozotocin], for which the “fasting blood glucose, fluctuation” value in the test on rhesus monkeys (after intravenous injection of STZ, 20 or 25 mg/kg per time, days 1-5, 12, 19) lay within 3.2 to 17.6 mmol/L. Moreover, in the test with rhesus monkeys (setting [2]), the “fasting blood glucose, consistently” value is “higher than 11.1 mmol/L” and the “serum C-peptide” value is recorded as “less than 0.3 nM”. In addition, the “glucagon expression-positive cells in the islet tissue” value with rhesus monkeys (immunohistochemistry, FIG. 3B) was “above 90%”. The models successfully prepared in the test on rhesus monkeys (of 6 rhesus monkeys) was found to be 4.
For “Insulin: combined treatment of long-acting porcine insulin (protamine zinc insulin) and short-acting ordinary porcine insulin, Wanbang Company”, in test [1] (setting [3]), the “fasting and postprandial blood glucose” value is listed as “less than 10 mmol/L”; the glycosylated hemoglobin result is on record as “less than 6.5%”. Further, the “therapeutic effect on autoimmune type 1 diabetes” value in test [1] (long-acting plus short-acting porcine insulin) is “better therapeutic effect”.
